The results in this text go back to patent US8722909B2, “Antiprotozoal compound derived from coelenterata” (Waseda University, priority 2010, dated 2014).

≈ marks a conversion by molar mass, not a printed value.

Common to all, as to assay type: cell-based
For experiment [1], the system named is EGFP transgenic Leishmania protozoa (LaEGFP). In words: microbe, parasite or virus in culture. The procedure: EGFP transgenic Leishmania protozoa (LaEGFP, Okuno T et al., Exp. Anim, 52: 109 (2003)) 1×10^5 cells were inoculated into a 96-well plate, and a sample diluted with a culture medium was then added and incubated for 72 hours. Subsequently, the fluorescence intensity within each well was measured using a fluorescence plate reader, and the antileishmanial activity of the test sample was calculated.

Experiment [2] relates to Trypanosoma congolense (bloodstream form). In words: Antitrypanosomal activity test (TetraColor ONE, 48 hours). The method, then:
Trypanosoma congolense (bloodstream form) 2×10^5 cells were inoculated into a 96-well plate, and a sample diluted with a culture medium was then added and cultured for 48 hours. Subsequently, 10 μL of TetraColor ONE (Seikagaku Biobusiness Corporation) was added to each well to measure the viable cell count, and after 4 hours, the absorbance at 450 nm was measured.

Experiment [3] concerns Plasmodium falciparum K-1 strain. In words: Antiplasmodial activity test (SYBR GREEN, 48 hours). To be noted: read-out: IC50 value against the Plasmodium falciparum K-1 strain. The procedure:
Synchronized 0.5% ring stage Plasmodium falciparum K-1 strain 90 μL was added to each well of a 96-well plate, and a sample diluted with a culture medium was then added and incubated for 48 hours. Subsequently, 100 μL of a mixed solution prepared by adding 0.2 μL of SYBR GREEN to 1 mL of lysis buffer (20 mM Tris (pH 7.5), 5 mM EDTA, 0.008% (wt/vol) saponin, 0.08% (vol/vol) Triton X-100) was added to each well, and stirred with a vortex mixer. Following standing for 1 hour in a dark place, the fluorescence was measured with a fluorescence plate reader, using an excitation wavelength of 485 nm and a detection wavelength of 530 nm.

Experiment [4] relates to human promyelocytic leukemia-derived HL-60 cells. In words: Cytotoxicity test (MTT), HL-60. To be noted: isolated compound, 72 hours, read-out: IC50 value against HL-60 cells. The method, then:
A suspension of human cervical cancer-derived HeLa cells, human promyelocytic leukemia-derived HL-60 cells, and mouse lymphoma-derived P388 cells (1×10^4 cells/mL) 200 μL was dispended into each well of rows A to H, columns 1 to 11 of a 96-well microplate, and the suspension was then incubated for 24 hours at 37° C. Subsequently, 2 μL of a methanol solution of the sample (1 mg/mL) was added to each well of row A, columns 1 to 10 of the 96-well microplate, and 2 μL of adriamycin (1 mg/mL) was added to the well of row A, column 11 as a positive control. Only the culture medium 200 μL was added to each well of rows A to D, column 12, and 200 μL of the aforementioned suspension of 1×10^4 cells/mL was added to each well of rows E to H, column 12. Using a multi-channel pipette, 50 μL of the culture medium was aspirated from the well of each column of row A and added to the well of the corresponding column of row B, and then 50 μL of the culture medium was aspirated from the well of each column of row B and added to the well of the corresponding column of row C. […] For each well, the absorbance of the colorimetric substrate dissolved in the DMSO was measured using a multi-well plate reader, and the concentration at which half the cells were inhibited (IC50) was determined.

Experiment [5] concerns human cervical cancer-derived HeLa cells. Put plainly: Cytotoxicity test (MTT), HeLa. To be noted: isolated compound, 72 hours, read-out: IC50 value against HeLa cells. The procedure: (§1) A suspension of human cervical cancer-derived HeLa cells and mouse lymphoma-derived P388 cells (1×10^4 cells/mL) 200 μL was dispended into each well of rows A to H, columns 1 to 11 of a 96-well microplate, and the suspension was then incubated for 24 hours at 37° C. Subsequently, 2 μL of a methanol solution of the sample (1 mg/mL) was added to each well of row A, columns 1 to 10 of the 96-well microplate, and 2 μL of adriamycin (1 mg/mL) was added to the well of row A, column 11 as a positive control. Only the culture medium 200 μL was added to each well of rows A to D, column 12, and 200 μL of the aforementioned suspension of 1×10^4 cells/mL was added to each well of rows E to H, column 12. Using a multi-channel pipette, 50 μL of the culture medium was aspirated from the well of each column of row A and added to the well of the corresponding column of row B, and then 50 μL of the culture medium was aspirated from the well of each column of row B and added to the well of the corresponding column of row C. […] Following culturing for 72 hours, 50 μL of 1 mg/mL PBS solution of MTT (3-[4,5-dimethylthiazol-2-yl]-2,5-diphenyl tetrazolium bromide) was added to each well. […] For each well, the absorbance of the colorimetric substrate dissolved in the DMSO was measured using a multi-well plate reader, and the concentration at which half the cells were inhibited (IC50) was determined. […]

Experiment [6] deals with mouse lymphoma-derived P388 cells. Put plainly: Cytotoxicity test (MTT), P388. To be noted: isolated compound, 72 hours, read-out: IC50 value against P388 cells. The procedure:
as §1

On to `C[C@@H]1[C@H](O)[C@@H](C)/C=C/C=C/C=C/C=C/C=C/C=C/C=C/[C@H](O[C@@H]2O[C@H](C)[C@@H](O)[C@H](N)[C@@H]2O)C[C@@H]2O[C@](O)(C[C@@H](O)C[C@@H](O)[C@H](O)CC[C@@H](O)C[C@@H](O)CC(=O)O[C@H]1C)C[C@H](O)[C@H]2C(=O)O` [amphotericin B, reference compound], for which, in experiment [1] (LaEGFP, 72 hours), the “IC50 value against the LaEGFP (antileishmanial activity)” value is given as “approximately 20 ng/mL”. Further, in experiment [2], the “IC50 value against the T. congolense” value worked out at 0.811 µg/mL (≈ 0.878 µM).

The IC50 is the midpoint of a concentration-inhibition curve. Take `CC(=O)O/C=C1\CCC/C(C=O)=C\C[C@@H]2C(C(=O)CC=C(C)C)=CO[C@H](OC(C)=O)[C@@H]12` [cristaxenicin A]: the IC50 worked out at 4.6 µg/mL (≈ 10.7 µM) in experiment [3]; 0.036 µg/mL (≈ 0.0836 µM) in experiment [1] (Leishmania, 72 h, read-out: IC50 value against the LaEGFP (antileishmanial activity)); 0.107 µg/mL (≈ 0.249 µM) in experiment [2] (Trypanosoma congolense, read-out: IC50 value against the T. congolense); 0.727 µg/mL (≈ 1.69 µM) in experiment [4]; 2 µg/mL (≈ 4.65 µM) in experiment [5]; 0.89 µg/mL (≈ 2.07 µM) in experiment [6].

cristaxenicin A: the “antiprotozoal activity of HPLC peak fractions (in words)” value in experiment [1] (reversed phase HPLC peak fractions) is on record as “exhibited antiprotozoal activity”.
